# Test system: C2C12 Cells
# Assay: GFP plasmid transfection with DOTMA/DOPE plus surface ligand peptide, fluorescent plate reader (Example 1)
# Assay type: cell-based, mouse
# Conditions: DOTMA/DOPE + peptide linked to R12 or K16; EF1Alpha eGFP plasmid; 42 hours
# Procedure: (§1) Cells were plated to so that on the day of transfection the cells were 70% confluent in 96 well tissue culture plates. A DOMTA/DOPE Lipid solution (1:1 molar ratio) at 2 mg/mL in water were mixed with an equal volume cell surface ligand containing adhesion peptide, the plant virus movement protein, or peptide derived therefrom, that had the nucleic acid binding moiety RRRRRRRRRRRR (SEQ ID NO:109) or KKKKKKKKKKKKKKKK (SEQ ID NO: 102) covalently linked to the N-terminus, or C-terminus of each peptide during peptide synthesis. Peptides were at 2 mg/mL in water. The DOTMA/DOPE and the solution containing the cell surface ligand containing adhesion peptide, the plant virus movement protein, or peptide derived therefrom, surface ligand peptide the was diluted 1 to 1 (v/v) in water. DOMTA/DOPE/PEPTIDE solutions were added to 0.1 mL of a plasmid DNA solution (EF1Alpha eGFP plasmid) at 10 μg/mL in OptiMEM.
# (§2) All solutions were at room temperature. A volume of 0.2 mL of a 10 μg/mL solution of DNA was aliquoted into each well of a non-tissue cultured treated plate. 1-12 μL of transfection reagents were added to DNA solutions respectively. The transfection reagent and DNA solution was mixed by pipetting up and down twice. Transfection complexes were formed for 10 minutes. After 10 minutes, 0.01 or 0.02 mL of the transfection complex was added to cells. HuVEC, HeLa, human adult keratinocytes, human primary adult fibroblast, and A549 cells all respectively received 0.01 mL of the transfection complex. Human skeletal muscle cells, mouse C2C12 cells, and Jurkat, cells received 0.02 mL of the transfection complex. Cells were incubated for 42 hours at 37° C. at 5% CO2. Plates were read on a fluorescent plate reader. Cells were also examined visually under a microscope to assess the extent of transfection (in terms of the percent of cells transfected) with a fluorescent microscope. Other modes of analysis, for example quantification with B-galactocidase or luciferase reports plasmids can also be used.
# (§3) Surface ligand that caused increase expression of GFP over the lipid DOTMA with no surface ligand were considered to enhance transfection or had higher % cells transfected were considered to enhance transfection. Peptides that gave greater than 2-fold enhancement are noted in bold and could be further optimized by adding different transfection enhancers or could be used with different cationic lipids or polymers.
# (§4) Tables 2-7, below, provide the results of the transfection enhancements with the various cell types, while Table 8 lists the peptides that were determined by visual inspection to enhance the transfection of the denoted cell lines over the lipid DOTMA.
row,Substance,Relative Fluorescence of Transfection of C2C12 Cells (RF)
1,357 (SETTVKYIFRLHE) [compound 357],4506
2,450 (TAGSCLRKFSCL) [compound 450],3795
3,503 (TAGSCLRKFSTMRRRRRRRRRRRR) [compound 503],3973
4,341 (LRAHAVDVNG) [compound 341],2141
5,343 (LFSHAVSSNG) [compound 343],3218
6,229 (PPFLMLLKGSTR) [compound 229],1164
7,216 (YRVRVTPKEKTGPMKE) [compound 216],1001

# Test system: HeLa Cells
# Assay: GFP transfection with DOTMA/SEQ ID NO: 72 (fusogenic peptide)/peptide compared with Lipofectamine 2000
# Assay type: cell-based
# Conditions: 0.1 μL of DOTMA/SEQ ID NO: 72/Peptide in well of a 96 well plate
# Procedure: as §1, §2
# The fusogenic peptide was added to the DOMTA/peptide formulation to achieve a final concentration of 0.1 mg/mL to see if transfection reagents were further enhanced by the addition of a fusogenic peptide and could provide higher transfection efficiency into HeLa cells and expression than the commercially available Lipofectamine 2000.
row,Substance,"Relative Fluorescence DOTMA/SEQ ID NO: 72/Peptide, HeLa Cells (RF)"
1,357 (SETTVKYIFRLHE) [compound 357],7718
2,450 (TAGSCLRKFSCL) [compound 450],11962
3,503 (TAGSCLRKFSTMRRRRRRRRRRRR) [compound 503],12827
4,341 (LRAHAVDVNG) [compound 341],6406
5,343 (LFSHAVSSNG) [compound 343],6961

# Same assay, conditions: 0.2 μL of DOTMA/SEQ ID NO: 72/Peptide in well of a 96 well plate
row,Substance,"Relative Fluorescence DOTMA/SEQ ID NO: 72/Peptide, HeLa Cells (RF)"
1,357 (SETTVKYIFRLHE) [compound 357],11798
2,450 (TAGSCLRKFSCL) [compound 450],17346
3,503 (TAGSCLRKFSTMRRRRRRRRRRRR) [compound 503],20006
4,341 (LRAHAVDVNG) [compound 341],7469
5,343 (LFSHAVSSNG) [compound 343],8626

# Same assay, conditions: 0.3 μL of DOTMA/SEQ ID NO: 72/Peptide in well of a 96 well plate
row,Substance,"Relative Fluorescence DOTMA/SEQ ID NO: 72/Peptide, HeLa Cells (RF)"
1,357 (SETTVKYIFRLHE) [compound 357],9229
2,450 (TAGSCLRKFSCL) [compound 450],12553
3,503 (TAGSCLRKFSTMRRRRRRRRRRRR) [compound 503],17101
4,341 (LRAHAVDVNG) [compound 341],8020
5,343 (LFSHAVSSNG) [compound 343],8577

# Same assay, conditions: 0.4 μL of DOTMA/SEQ ID NO: 72/Peptide in well of a 96 well plate
row,Substance,"Relative Fluorescence DOTMA/SEQ ID NO: 72/Peptide, HeLa Cells (RF)"
1,357 (SETTVKYIFRLHE) [compound 357],9107
2,450 (TAGSCLRKFSCL) [compound 450],10241
3,503 (TAGSCLRKFSTMRRRRRRRRRRRR) [compound 503],16206
4,341 (LRAHAVDVNG) [compound 341],7546
5,343 (LFSHAVSSNG) [compound 343],8160

# Test system: HeLa Cells
# Assay: GFP plasmid transfection with DOTMA/DOPE plus surface ligand peptide, fluorescent plate reader (Example 1)
# Assay type: cell-based
# Conditions: DOTMA/DOPE + peptide linked to R12 or K16; EF1Alpha eGFP plasmid; 42 hours
# Procedure: as §1, §2, §3, §4
row,Substance,Relative Fluorescence of Transfection of HeLa Cells (RF)
1,357 (SETTVKYIFRLHE) [compound 357],22679
2,450 (TAGSCLRKFSCL) [compound 450],21045
3,503 (TAGSCLRKFSTMRRRRRRRRRRRR) [compound 503],25368
4,341 (LRAHAVDVNG) [compound 341],4108
5,343 (LFSHAVSSNG) [compound 343],5910
6,229 (PPFLMLLKGSTR) [compound 229],8816
7,216 (YRVRVTPKEKTGPMKE) [compound 216],6181

# Test system: Human Fibroblast Cells
# Assay: as above
# Assay type: cell-based
# Conditions: DOTMA/DOPE + peptide linked to R12 or K16; EF1Alpha eGFP plasmid; 42 hours
# Procedure: as §1, §2, §3, §4
row,Substance,Relative Fluorescence of Transfection of Human Fibroblast Cells (RF)
1,357 (SETTVKYIFRLHE) [compound 357],7167
2,450 (TAGSCLRKFSCL) [compound 450],6996
3,503 (TAGSCLRKFSTMRRRRRRRRRRRR) [compound 503],13085
4,341 (LRAHAVDVNG) [compound 341],2284
5,343 (LFSHAVSSNG) [compound 343],4590
6,229 (PPFLMLLKGSTR) [compound 229],6811
7,216 (YRVRVTPKEKTGPMKE) [compound 216],3117

# Test system: HuVec Cells
# Assay: as above
# Assay type: cell-based
# Conditions: DOTMA/DOPE + peptide linked to R12 or K16; EF1Alpha eGFP plasmid; 42 hours
# Procedure: as §1, §2, §3, §4
row,Substance,Relative Fluorescence of Transfection of HuVec Cells (RF)
1,357 (SETTVKYIFRLHE) [compound 357],6009
2,450 (TAGSCLRKFSCL) [compound 450],20911
3,503 (TAGSCLRKFSTMRRRRRRRRRRRR) [compound 503],12123
4,341 (LRAHAVDVNG) [compound 341],15906
5,343 (LFSHAVSSNG) [compound 343],16239
6,229 (PPFLMLLKGSTR) [compound 229],5452
7,216 (YRVRVTPKEKTGPMKE) [compound 216],14693

# Test system: Jurkat Cells
# Assay: as above
# Assay type: cell-based
# Conditions: DOTMA/DOPE + peptide linked to R12 or K16; EF1Alpha eGFP plasmid; 42 hours
# Procedure: as §1, §2, §3, §4
row,Substance,Relative Fluorescence of Transfection of Jurkat Cells (RF)
1,357 (SETTVKYIFRLHE) [compound 357],2256
2,450 (TAGSCLRKFSCL) [compound 450],8779
3,503 (TAGSCLRKFSTMRRRRRRRRRRRR) [compound 503],9411
4,341 (LRAHAVDVNG) [compound 341],18042
5,343 (LFSHAVSSNG) [compound 343],23499
6,229 (PPFLMLLKGSTR) [compound 229],8079
7,216 (YRVRVTPKEKTGPMKE) [compound 216],3570

# Test system: NL-1 iPS Cells
# Assay: as above
# Assay type: cell-based
# Conditions: DOTMA/DOPE + peptide linked to R12 or K16; EF1Alpha eGFP plasmid; 42 hours
# Procedure: as §1, §2, §3, §4
row,Substance,Relative Fluorescence of Transfection of NL-1 iPS Cells (RF)
1,357 (SETTVKYIFRLHE) [compound 357],15624
2,450 (TAGSCLRKFSCL) [compound 450],29856
3,503 (TAGSCLRKFSTMRRRRRRRRRRRR) [compound 503],19014
4,341 (LRAHAVDVNG) [compound 341],20446
5,343 (LFSHAVSSNG) [compound 343],21726
6,229 (PPFLMLLKGSTR) [compound 229],13491
7,216 (YRVRVTPKEKTGPMKE) [compound 216],19626

# Test system: some examined cell types
# Assay: Summary of Example 1: transfection expression and % cells transfected over the no peptide control
# Assay type: cell-based
# Conditions: on some examined cell types
# Procedure: as §1, §2, §3
row,Substance,transfection expression and % cells transfected over the no peptide control
1,357 (SETTVKYIFRLHE) [compound 357],increased transfection expression and the % cells transfected
2,450 (TAGSCLRKFSCL) [compound 450],increased transfection expression and the % cells transfected
3,503 (TAGSCLRKFSTMRRRRRRRRRRRR) [compound 503],increased transfection expression and the % cells transfected
4,341 (LRAHAVDVNG) [compound 341],increased transfection expression and the % cells transfected
5,343 (LFSHAVSSNG) [compound 343],increased transfection expression and the % cells transfected
6,229 (PPFLMLLKGSTR) [compound 229],increased transfection expression and the % cells transfected
7,216 (YRVRVTPKEKTGPMKE) [compound 216],increased transfection expression and the % cells transfected

# From patent US20250154525A1, “PLANT VIRUS MOVEMENT PROTEINS AND METHODS OF USING SAME” (Molecular Transfer, Inc., priority 2016, published 2025)
